Experiments:
[1] = tested on: 4E-BP1 phosphorylation; experiment: Inhibition of 4E-BP1 phosphorylation in HCT116 cells (Western blot); assay type: cell-based, human; details: 12 h
Description: Compounds that pass this single dose filter are then tested in a CRC (HCT116) in vitro cytotoxicity assay and, in parallel, an in vitro assay to assess propensity for intracellular reactive oxygen species (ROS) production using the redox sensitive probe CeIIROX® Deep Red reagent (Invitrogen) by flow cytometry analysis (47).
(§1) Cells were lysed in NP-40 lysis buffer (50 mM Tris-HCl, pH 7.5, 150 mM NaCl, 1 mM EDTA, 1% NP-40, 10% glycerol, protease and phosphatase inhibitor cocktail). Western blot analysis were performed using equivalent total protein loadings as described previously. For immunoprecipitation, the cell lysates were incubated with the indicated antibody overnight followed by incubation with a 50% slurry of protein G sepharose beads for 3 h at 4° C. The beads were washed three times with the lysis buffer, and the immunoprecipitated protein complexes were resuspended in 2× Laemmli sample buffer followed by western blot analysis.

[2] = tested on: 4E-BP1 phosphorylation; experiment: 4E-BP1 phosphorylation in MDA-MB-231 breast cancer cells (Western blot); assay type: cell-based, human; details: MDA-MB-231 cells, 2 μM, 12 hours
Description: Cells were treated with 100 nM rapamycin, 0.5 μM AZD8055, 2 μM FB, 2 μM UCF76-A or DMSO control for 12 hours followed by Western blot analysis for the indicated proteins.
as §1

[3] = tested on: cellular GSH; experiment: Cellular glutathione (GSH) assay in HCT116 cells; assay type: cell-based, human; details: HCT116, 2 μM, 5 h
Description: Cells were treated with 2 μM of the indicated compounds or DMSO as control for 5 h. After treatment, a total number of 1×10^6 cells were lysed in 100 μl of ice-cold NP-40 lysis buffer for 10 min. The lysate was centrifuged for 10 min and the supernatant was used for glutathione assay using the ApoGSH glutathione detection kit according to the manufacturer's protocol (BioVision Research Products, Mountain view, CA). The total amount of GSH was measured using a fluorescence plate reader at Ex./Em.=380/460 nm.

[4] = molecular target: T1, Prx1 (Homo sapiens, UniProt Q06830); experiment: Affinity pull-down / binding to Prx1; design: endogenous in cells; host or cells: HeLa cell lysates; HCT116 cell lysates; details: streptavidin pull-down, competition, Western blot
T1 sequence (Q06830 1-199): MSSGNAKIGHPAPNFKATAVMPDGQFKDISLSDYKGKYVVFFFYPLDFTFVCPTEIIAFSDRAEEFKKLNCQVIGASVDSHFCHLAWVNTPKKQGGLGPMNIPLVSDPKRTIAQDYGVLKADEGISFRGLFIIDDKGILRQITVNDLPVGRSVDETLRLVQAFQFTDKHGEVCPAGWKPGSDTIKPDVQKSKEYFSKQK
Description: (§2) The precipitates were resolved by SDS-PAGE, and the gel was stained with Coomassie blue. (C) Sequences illustrating amino acids and peptides of Prx1 and Grx3 identified by mass spectrometry analysis. The unique bands as shown by d7-pull down in the experiment for FIG. 20B were excised and subjected to in-gel tryptic digestion and analysis by MS, wherein the identified amino acids and peptides are shown in red characters. (D) Western blot illustrating that HCT116 cell lysates were incubated with different concentrations of d5 or d7 in the absence or presence of a ten-fold excess of FB for 3 h, followed by pull-down with streptavidin-agarose and Western blot analysis for the indicated proteins.
(§3) FIGS. 21A-D show images illustrating that the active probe d7 binds to and co-localizes with Prx1 and Grx3. (A) and (B) The recombinant Prx1 (A) or Grx3 (B) was incubated with d7 for 2 hours, followed by streptavidin pull down and Western blot analysis for the indicated proteins. (C) and (D) HCT116 cells were incubated with 25 μM d5, 25 μM d7 or DMSO as control for 5 hours, followed by confocal sections of the cells staining for Prx1 (C) or Grx3 (D) (red), biotin (green) and DAPI (blue). Scale bars, 10 μm.
(§4) HeLa cell pellets were purchased from National Cell Culture Center (Minneapolis, Minn.) and lysed in 20 ml of the NP-40 lysis buffer. […]

[5] = molecular target: T2, Grx3 (Homo sapiens, UniProt O76003); experiment: Affinity pull-down / binding to Grx3; details: streptavidin pull-down, competition, Western blot
T2 construct: endogenous in cells; host or cells: HeLa cell lysates; HCT116 cell lysates
T2 sequence (O76003 1-335): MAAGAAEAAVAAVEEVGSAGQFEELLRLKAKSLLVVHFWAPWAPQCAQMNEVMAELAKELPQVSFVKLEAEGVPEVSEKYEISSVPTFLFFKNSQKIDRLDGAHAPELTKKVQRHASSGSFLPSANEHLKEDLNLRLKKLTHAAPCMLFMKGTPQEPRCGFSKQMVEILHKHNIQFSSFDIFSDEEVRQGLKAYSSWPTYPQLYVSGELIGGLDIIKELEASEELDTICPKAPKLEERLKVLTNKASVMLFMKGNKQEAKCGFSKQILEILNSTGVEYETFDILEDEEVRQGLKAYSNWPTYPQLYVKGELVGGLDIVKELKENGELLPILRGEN
Description: as §2, §3, §4

[6] = tested on: H2O2; experiment: Cellular H2O2 level in HCT116 cells; assay type: cell-based, human; details: HCT116, 2 μM, 5 h
Description: The ROS production was determined using the CellROX Deep Red Flow Cytometry Assay Kit according to the manufacturer's protocol (Life Technologies). Briefly, cells were treated with 2 μM of the indicated compounds or DMSO as control for 1 h. After treatment, cells were incubated with 0.5 μM of CellROX Deep Red reagent for 1 h at 37° C., washed twice with PBS and immediately analyzed by a FACScan flow cytometer. For the measurement of cellular H2O2 level, cells were treated with 2 μM of the indicated compounds for 5 h.

CCCC1OC2CC(=O)OC2C2=C1C(=O)c1c(O)cccc1C2=O (stereo not drawn) [FB, frenolicin B]
inhibition of 4E-BP1 phosphorylation [1]: effectively inhibited
inhibition of 4E-BP1 phosphorylation [2]: selectively inhibit
GSH levels [3]: decrease
binding to Prx1 [4]: directly targets
binding to Grx3 [5]: directly targets
cellular H2O2 [6]: marked increase
